From patent US12622917B2, “High-activity Wnt pathway inhibitor compound” (ADLAI NORTYE BIOPHARMA CO., LTD., priority 2020, dated 2026)
pIC50: −log10 of the molar value. Like-named read-outs stand apart in the source and are kept apart here.

Columns and labels:
HepG2 = test: Proliferation inhibition, HepG2 cell line; type: cell-based; settings: Homo sapiens; HepG2 cells, 96 hours culture, cell viability detection; read-out: Antiproliferative IC50 HepG2
Method in brief: (§1)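 Wnt-dependent proliferation in HepG2 and NCI-H929 cells, seeded at 4000 cells/well and pre-incubated 20-24 h at 37 °C. Cells were then exposed for 96 h to 3-fold serial dilutions (top final concentration 20 uM), and viability was read by signal intensity. IC50 was referenced to DMSO-only wells and cell-free wells.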

Hela = test: Proliferation inhibition, non-Wnt mutant control cell line Hela; type: cell-based; settings: Wnt-independent control cell line, 96 hours, read-out: Antiproliferative IC50 Hela
Description: The cell lines used in the experiment are Colo205 and DU4475 cell lines whose Wnt pathway is continuously activated and whose proliferation is Wnt pathway-dependent; while the BELA and RKO cell lines, whose Wnt pathway is not activated under normal circumstances and the proliferation is independent of Wnt pathway, as control cell lines. It is Judged that the inhibitory effect of the compound of the present invention on Wnt-dependent proliferation is not caused by other non-specific toxicity.
Treat the Colo205, Du4475, HELA and RKO cell lines cultured in their respective mediums in the logarithmic growth phase, collect the cells and prepare a uniform cell suspension of known concentration, and then add it to the 96-well cell culture plate Cell suspension, so that each well contains 1000 cells. Put it into a 5% CO2 incubator and incubate at 37° C. for 20-24 h. On the second day, the fully dissolved, 3-fold serially diluted compound was added to each cell culture well, so that the final maximum concentration in the cell culture well was 20 uM, and the culture was continued for 96 hours. In this test, Promega's cell viability detection test is used for detection. The more the cells proliferate, the stronger the final signal intensity will be. The detection instrument is SpectraMax, full wavelength mode. The wells only added with DMSO were used as positive control wells, and the wells that were not inoculated with cells were used as negative control wells. […] The IC50 value of cell proliferation inhibition was used to evaluate the inhibitory effect of the compound on the Wnt pathway and the toxic effect on normal cells (Table 2).

DU4475 = test: Proliferation inhibition, Wnt mutant cell line DU4475; type: cell-based; settings: DU4475, Wnt pathway-dependent, 96 hours, read-out: Antiproliferative IC50 DU4475
Method in brief: (§2)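 Read-out is a Promega cell viability signal that rises with proliferation, taken after 96 hours of compound treatment. Compound was dosed as a 3-fold dilution series up to 20 uM final, one day after plating 1000 log-phase cells per well; IC50 is calculated against DMSO and no-cell controls.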

[1] = test system: Colo205-LUC-TCF/LEF M1 reporter cell line (Wnt pathway); test: Colo205-LUC-TCF/LEF M1 reporter gene (luciferase) inhibition; type: cell-based; settings: 4 hours incubation, luciferase readout
Method in brief: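 Luminescent readout of TCF/LEF-regulated luciferase after a 4 h, 37° C compound exposure in a stable Colo205 reporter clone (10,000 cells/well). Serial 3-fold dilutions started at 20 uM; IC50 derived using DMSO-treated cells and no-cell wells as controls.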

RKO = test: Proliferation inhibition, non-Wnt mutant control cell line RKO; type: cell-based; settings: Wnt-independent control cell line, 96 hours, read-out: Antiproliferative IC50 RKO
Method in brief: as §2

Colo205 = test: Proliferation inhibition, Wnt mutant cell line Colo205; type: cell-based; settings: Colo205, Wnt pathway-dependent, 96 hours, read-out: Antiproliferative IC50 Colo205
Method in brief: as §2

NCI-H929 = test: Proliferation inhibition, NCI-H929 cell line; type: cell-based, human; settings: Homo sapiens; NCI-H929 cells, 96 hours culture, cell viability detection; read-out: Antiproliferative IC50 NCI-H929
Method in brief: as §1

Row | Molecule | pIC50 (HepG2) | pIC50 (Hela; Homo sapiens) | pIC50 (DU4475; Homo sapiens, DU-4475) | pIC50 [1] | pIC50 (RKO; Homo sapiens) | pIC50 (Colo205; Homo sapiens, COLO 205) | pIC50 (NCI-H929) | pIC50 (Hela) | pIC50 (DU4475) | pIC50 (RKO) | pIC50 (Colo205)
1 | COC[C@H]1Cn2ccc3nc(NCc4cnn(Cc5ccc(C(F)(F)F)nc5)c4)nc(c32)N1C [68 (W49)] | 8.36 | < 5.00 | 7.89 | 7.92 | < 5.00 | 8.09 |  |  |  |  | 
2 | C[C@H]1Cn2ccc3nc(NCc4cnn(CC(F)(F)F)c4)nc(c32)N1C [80 (W104)] | 8.03 | < 5.00 | 7.56 | 8.00 | < 5.00 | 7.61 |  |  |  |  | 
3 | C[C@H]1Cn2ccc3nc(NCc4ccc(OCC(F)(F)F)nc4)nc(c32)N1C [82 (W107)] | 9.00 | 5.84 | 7.96 | 8.22 | 5.74 | 7.91 |  |  |  |  | 
4 | C[C@H]1C(=O)N2CCCc3nc(NCc4ccc(Oc5cnc(C(F)(F)F)nc5)nc4)nc(c32)N1C [91 (W221)] | 7.46 | < 5.00 | 7.62 | 7.55 | < 5.00 | 7.51 | 7.19 |  |  |  | 
5 | [2H]C([2H])([2H])N1c2nc(NCc3ccc(Oc4ccc(C(F)(F)F)nc4)nc3)nc3c2N(CCC3)C(=O)[C@@H]1C [105 (W199)] | 7.36 | < 5.00 | 7.51 | 7.51 | < 5.00 | 7.68 | 7.35 |  |  |  | 
6 | COC[C@H]1C(=O)N2CCCc3nc(NCc4ccc(Oc5ccc(C(F)(F)F)nc5)nc4)nc(c32)N1C [106 (W190), (S)-5-(methoxymethyl)-4-methyl-2-(((6-((6-(trifluoromethyl)pyridin-3-yl)oxo)pyridin-3-yl)methyl)amino)-4,5,9,10-tetrahydro-6H,8H-pyrido[3,2,1-de]pteridin-6-one] |  | < 5.00 | 7.34 | 7.27 | < 5.00 | 7.52 |  |  |  |  | 
7 | O=C1[C@@H]2CCCN2c2nc(NCc3ccc(Oc4ccc(C(F)(F)F)nc4)nc3)nc3c2N1CCC3 [111 (W241), (S)-2-(((6-((6-(trifluoromethyl)pyridin-3-yl)oxo)pyridin-3-yl)methyl)amino)-5,6,8a,9, 10,11-hexahydro-4H,8H-pyrido[3,2,1-de]pyrrolo[2,1-h]pteridin-8-one] | 7.40 | < 5.00 | 7.43 | 7.68 | < 5.00 | 7.70 | 7.03 |  |  |  | 
8 | C[C@H]1C(=O)N2CCCc3nc(NCc4cnn(Cc5ccc(F)cc5)c4)nc(c32)N1C [Example 15, (S)-2-(((1-(4-fluorobenzyl)-1H-pyrazol-4-yl)methyl)amino)-4,5-dimethyl-4,5,9,10-tetrahydro-6H,8H-pyrido[3,2,1-de]pteridin-6-one] |  | < 5.00 | 7.36 | 7.28 | < 5.00 | 7.39 |  |  |  |  | 
9 | C[C@H]1CN(C)c2nc(NCc3cnn(Cc4ccc(C(F)(F)F)nc4)c3)nc3ccn1c23 [Example 19, (S)-4,6-dimethyl-N-((1-((6-(trifluoromethyl)pyridin-3-yl)methyl)-1H-pyrazol-4-yl)methyl)-5,6-dihydro-4H-pyrrolo[3,2,1-de]pteridin-2-amine] |  | < 5.00 | 8.05 | 8.05 | < 5.00 | 8.10 |  |  |  |  | 
10 | C[C@H]1CN(C)c2nc(NCc3cnn(Cc4ccc(C(F)(F)F)nc4)c3)nc3cc(C(F)F)n1c23 [Example 21, (S)-8-(difluoromethyl)-4,6-dimethyl-N-((1-((6-(trifluoromethyl)pyridin-3-yl)methyl)-1H-pyridine Azol-4-yl)methyl)-5,6-dihydro-4H-pyrrolo[3,2,1-de]pteridin-2-amine] |  | < 5.00 | 7.14 | 7.52 | 5.52 | 7.01 |  |  |  |  | 
11 | C[C@H]1Cn2c(C(F)F)cc3nc(NCc4cnn(Cc5ccc(C(F)(F)F)nc5)c4)nc(c32)N1C [Example 22, (S)-8-(difluoromethyl)-4,5-dimethyl-N-((1-((6-(trifluoromethyl)pyridin-3-yl)methyl)-1H-pyridine Azol-4-yl)methyl)-5,6-dihydro-4H-pyrrolo[3,2,1-de]pteridin-2-amine] |  | < 5.00 | 7.72 | 8.00 | 5.27 | 7.66 |  |  |  |  | 
12 | CC(C)N1C[C@H](C)n2ccc3nc(NCc4cnn(Cc5ccc(C(F)(F)F)nc5)c4)nc1c32 [Example 23, (S)-4-isopropyl-6-methyl-N-((1-((6-(trifluoromethyl)pyridin-3-yl)methyl)-1H-pyrazol-4-yl)methyl)-5,6-dihydro-4H-pyrrolo[3,2,1-de]pteridin-2-amine] |  | < 5.00 | 7.82 | 7.96 | 5.47 | 7.80 |  |  |  |  | 
13 | [2H]C1([2H])[C@H](COC)N(C)c2nc(NCc3cnn(Cc4ccc(C(F)(F)F)nc4)c3)nc3ccn1c23 [Example 24, (R)-5-(methoxymethyl)-4-methyl-N-((1-((6-(trifluoromethyl)pyridin-3-yl)methyl)-1H-pyrazole-4-yl)methyl)-5,6-dihydro-4H-pyrrolo[3,2,1-de]pteridin-6,6-d2-2-amine] |  | < 5.00 | 8.01 | 7.89 | < 5.00 | 8.05 |  |  |  |  | 
14 | COC[C@H]1CN(C)c2nc(NCc3cnn(Cc4ccc(C(F)(F)F)nc4)c3)nc3cc(C)n1c23 [Example 25, (R)-6-(methoxymethyl)-4,8-dimethyl-N-((1-((6-(trifluoromethyl)pyridin-3-yl)methyl)-1H-pyrazol-4-yl)methyl)-5,6-dihydro-4H-pyrrolo[3,2,1-de]pteridin-2-amine] |  | < 5.00 | 7.30 | 7.72 | < 5.00 | 7.36 |  |  |  |  | 
15 | CN1CC(F)(F)Cn2ccc3nc(NCc4cnn(Cc5ccc(C(F)(F)F)nc5)c4)nc1c32 [Example 26, 8,8-difluoro-6-methyl-N-((1-((6-(trifluoromethyl)pyridin-3-yl)methyl)-1H-pyrazol-4-yl)methyl)-6,7,8,9-tetrahydro-3,5,6,9a-tetraazabenzo[cd]azulene-4-amine] |  | < 5.00 | 7.55 | 7.72 | < 5.00 | 7.46 |  |  |  |  | 
16 | C[C@@H]1CN(C)c2nc(NCc3cnn(Cc4ccc(C(F)(F)F)nc4)c3)nc3ccn1c23 [Example 27, (R)-4,6-dimethyl-N-((1-((6-(trifluoromethyl)pyridin-3-yl)methyl)-1H-pyrazol-4-yl)methyl)-5,6-dihydro-4H-pyrrolo[3,2,1-de]pteridin-2-amine] |  | < 5.00 | 7.43 | 7.59 | 5.35 | 7.12 |  |  |  |  | 
17 | FC(F)(F)c1ccc(Cn2cc(CNc3nc4c5c(ccn5C[C@@H]5COCCN45)n3)cn2)cn1 [Example 28, (R)—N-((1-((6-(trifluoromethyl)pyridin-3-yl)methyl)-1H-pyrazol-4-yl)methyl)-7a,8,10,11-tetrahydro-7H-[1,4]oxazino[3,4-h]pyrrolo[3,2,1-de]pteridin-2-amine] |  | < 5.00 | 7.47 | 7.57 | < 5.00 | 7.54 |  |  |  |  | 
18 | (S)-6,7-dimethyl-4-(((1-((6-(trifluoromethyl)pyridin-3-yl)methyl)-1H-pyrazol-4-yl)methyl)amino)-7,8-dihydro-3,5,6,9a-tetraazabenzo[cd]azulene-9(6H)-one [Example 6] |  |  |  | 7.24 |  |  |  | < 5.00 | 7.23 | < 5.00 | 7.34
